Test results as given in patent US20100160454A1, “ANTIMICROBIAL AGENTS, COMPOSITIONS AND PRODUCTS CONTAINING THE SAME, AND METHODS OF USING THE COMPOSITIONS AND PRODUCTS” (Eastman Chemical Company, priority 2008, published 2010).

Assays:
Assay in all cases: Challenge testing against pathogenic fungi, growth rating in broth tubes
Format in all cases: cell-based
Parameters in all cases: key: 0: No visible growth; 1: Some growth in tube; 2: Moderate growth in tube; 3: Good growth in tube; 4: Extreme growth in tube
[1] = system: Trichophyton rubrum (ATCC 10218); settings: Trichophyton rubrum
Experimental: (§1) Both Microsporum canis and Trichophyton rubrum were grown on Sabouraud dextrose broth, while Malassezia fufur was grown in Sabouraud dextrose broth supplemented with 2% (v/v) of olive oil and 0.2% (v/v) of Tween™ 80; incubation was at 22°±2° C. under continuous agitation by stirring for 10 days. The organisms were grown to a density of between 1.0×10^3 to 1.0×10^4 cfu/g. The actual inoculation cell density of these challenges were determined by diluting in sterile buffer water and (spread-plate method) plating for enumeration.
(§2) Challenge organisms were used to inoculate tubes of 1,4-CHDM-D90 test concentrations prepared in Sabouraud dextrose broth (or Sabouraud dextrose broth supplemented with olive oil-Tween™ 80 with M. furfur). The inoculations were in the amount of 1.5 mL aliquots of each culture with static incubation at 22±2° C. Subcultures were made at 3-, 14- and 30-day increments. All challenges were conducted in triplicate. In the case of M. canis, the growth response was assessed by the visual presence/absence of growth in the tubes; in the case of T. rubrum, a respiratory (redox) dye (0.2% w/v aqueous INT solution: 2-[4-iodophenyl)-3-4-nitrophenyl]-5-phenyl tetrazolium chloride) was added to the tubes, turning red if the organism was viable; and, finally, in the case of M. furfur, the growth response was assessed based upon pellicle formation in the tubes at the meniscus. The test formulations and challenge test results, as well as 30-day MICs (Minimum Inhibitory Concentration), are in Tables 7-9 for the three organisms using the following growth rating system:
(§3) • 0: No visible growth • 1: Some growth in tube • 2: Moderate growth in tube • 3: Good growth in tube • 4: Extreme growth in tube

[2] = system: Malassezia furfur (ATCC 96809); settings: Malassezia furfur
Experimental: as §1, §2, §3

[3] = system: Microsporum canis (ATTC 9084); settings: Microsporum canis
Experimental: as §1, §2, §3

[4] = test concentration 0.5%, 3 days
[5] = test concentration 0.5%, 14 days
[6] = test concentration 0.5%, 30 days
[7] = test concentration 1.25%, 3 days
[8] = test concentration 1.25%, 14 days
[9] = test concentration 1.25%, 30 days
[10] = test concentration 2.5%, 3 days
[11] = test concentration 2.5%, 14 days
[12] = test concentration 2.5%, 30 days

Structure (SMILES): OCC1CCC(CO)CC1 (stereo not drawn) [1,4-CHDM-D90, 1,4-cyclohexanedimethanol]
- Growth Rating [1, 4]: 1/1/1
- Growth Rating [1, 5]: 1/1/1
- Growth Rating [1, 6]: 1/1/1
- Growth Rating [1, 7]: 0/0/0
- Growth Rating [1, 8]: 0/0/0
- Growth Rating [1, 9]: 0/0/0
- Growth Rating [1, 10]: 0/0/0
- Growth Rating [1, 11]: 0/0/0
- Growth Rating [1, 12]: 0/0/0
- Growth Rating ([1]; test concentration 5%, 3 days): 1
- Growth Rating ([1]; test concentration 5%, 14 days): 0
- Growth Rating ([1]; test concentration 5%, 30 days): 0
- Growth Rating [2, 4]: 0
- Growth Rating [2, 5]: 1
- Growth Rating [2, 6]: 2
- Growth Rating [2, 7]: 0/0/0
- Growth Rating [2, 8]: 0/0/0
- Growth Rating [2, 9]: 0/0/0
- Growth Rating [2, 10]: 0/0/0
- Growth Rating [2, 11]: 0/0/0
- Growth Rating [2, 12]: 0/0/0
- Growth Rating ([2]; test concentration 5%, 3 days): 0/0/0
- Growth Rating ([2]; test concentration 5%, 14 days): 0/0/0
- Growth Rating ([2]; test concentration 5%, 30 days): 0/0/0
- Growth Rating [3, 4]: 2
- Growth Rating [3, 5]: 1
- Growth Rating [3, 6]: 1
- Growth Rating [3, 7]: 2
- Growth Rating [3, 8]: 1
- Growth Rating [3, 9]: 1
- Growth Rating [3, 10]: 2
- Growth Rating [3, 11]: 0
- Growth Rating [3, 12]: 0
- Growth Rating ([3]; test concentration 5%, 3 days): 0/0/0
- Growth Rating ([3]; test concentration 5%, 14 days): 0/0/0
- Growth Rating ([3]; test concentration 5%, 30 days): 0/0/0
